2 compounds from article PMC12990037, “Discovery of Two Structurally Distinct Classes of Inhibitors Targeting the Nuclease MUS81 and Enhancing Efficacy of Chemotherapy in Cancer Cells” (Journal of Medicinal Chemistry, 2026) can be followed below.

Assay type in all cases: cell-based
The test system of one assay is EJ5-GFP cells. The assay can be described thus: I-SceI-based NHEJ repair reporter assay. The conditions noted are these: 72 h. The protocol:
(§1) 3 MUS81 inhibitors suppress HR and BIR. (A) I-SceI-based BIR repair efficiency was measured in U2OS BIR-GFP cells treated with DMSO, two different siRNAs targeting MUS81, or the indicated concentrations of MU262 and MU876, and their control analogues for 72 h. The percentage of repair was normalized to the DMSO-treated control (D). n = 3. Error bars represent standard deviation (s.d.); ****p <0.0001 (unpaired, two-tailed t-test). […] (C,D) I-SceI-based HR (C) and NHEJ (D) repair efficiency was measured using U2OS DR-GFP and EJ5-GFP cells, respectively, following treatment with DMSO, MU262,MU876, or their control analogues for 72 h. The percentage of repair was normalized to the DMSO-treated control. n = 3. Error bars represent s.d.; *p <0.05, **p <0.01, ****p <0.0001 (unpaired, two-tailed t-test).
(§2) Reporter DR-GFP and […] U2OS cells along with BIR-GFP cells were transfected with 2.5 μg of I-SceI-expressing pCAGGS vector and subsequently treated with MUS81 inhibitors at the indicated concentrations. After transfection (72 h), cells were trypsinized and resuspended in 3% BSA in PBS. GFP fluorescence detection was carried out using a BD FACSVerse flow cytometer, and the data were analyzed with FlowJo software (BD Life Sciences). Data presented in the graph were normalized to the DMSO-treated sample.
On the technique in general: Reporter assays use an easily measured gene product as a stand-in for the process of interest.

In a further assay the test system is U2OS, HEK293, and CAL51. Kind of assay: Cell proliferation assay (CyQUANT), combination with cisplatin. The conditions noted are these: cotreatment with cisplatin, 5 days. How it is done:
7 MUS81 inhibitors synergize with cisplatin to reduce cancer cell viability. (A,B) U2OS cells were treated with DMSO, MU262, or MU876 at the indicated concentrations in combination with a range of cisplatin (0–5 μM) for 96–120 h. Cell viability was assessed by the Cy-Quant assay. The survival was normalized to the DMSO-treated control. Graphs were generated in Graphpad Prism using the nonlinear regression fitting model. n ≥ 3, error bars represent s.d. (C) CAL51 WT cells were treated with DMSO, MU262, or MU876 at the indicated concentrations at each passage over 2 weeks. Cisplatin (12 μM) was added for the last 24 h before harvest. DNA damage was assessed by quantifying γH2AX foci using fluorescence microscopy and CellProfiller software. Data were visualized plotted in R software. Red markers represent the median of γH2AX foci number per nucleus; blue markers represent the percentage of cells with ≥20 γH2AX foci per nucleus. n = 3, error bars represent s.d.; ****p <0.0001 (unpaired, two-tailed t-test). TEXT PRINTED IN THE PICTURE: (C) D: γH2AX foci: 2.4 (DMSO); γH2AX foci: 59.6 (Cisplatin) | (C) MU262: γH2AX foci: 2.3 (1 μM; DMSO); γH2AX foci: 3 (2 μM; DMSO); γH2AX foci: 55.4 (1 μM; Cisplatin); γH2AX foci: 43.2 (2 μM; Cisplatin) | (C) MU876: γH2AX foci: 2.8 (0.25 μM; DMSO); γH2AX foci: 0.9 (0.5 μM; DMSO); γH2AX foci: 48.2 (0.25 μM; Cisplatin); γH2AX foci: 42.6 (0.5 μM; Cisplatin) DOUBTS OF THE COPYIST ABOUT THIS PICTURE: Panel C: the numbers in the blue markers have no measure or unit of their own printed in the picture; the axis title 'γH2AX foci' is given as the measure, but the numbers may stand for another quantity. / Panel C: 'D' is a control column with no concentration; it may not count as a substance. / Panel C: small white print on blue markers; 59.6, 55.4, 48.2, 43.2, 42.6, 2.8 and 0.9 are best readings (3, 5, 6, 8 and 9 are hard to tell apart).
CAL51 WT, CAL51 MUS81^–/–, U2OS, and HEK293 cells were seeded in a 96-well plate and treated with the respective concentration of selected inhibitors. […]

The test system of a further assay is U2OS BIR-GFP cells. Kind of assay: I-SceI-based BIR repair reporter assay. The conditions noted are these: Homo sapiens, 72 h, normalized to DMSO. How it is done:
as §1, §2

Structures are written as SMILES.

In general, IC50 refers to the point on the concentration scale where inhibition reaches its midpoint. In the case of `CCc1nn2c(O)c(-c3nc4ccccc4[nH]3)nnc2c1-c1ccc(F)cc1` [Compound 18, 3-(1H-Benzo[d]imidazole-2-yl)-7-ethyl-8-(4-fluorophenyl)pyrazolo[5,1-c][1,2,4]triazin-4-ol], in the assay with EJ5-GFP cells, the “effect on NHEJ” value is “no negative effect”. Further, the “enhancement of cisplatin-induced decrease of viability” value in the assay with U2OS, HEK293, and CAL51 is on record as “further enhanced by cotreatment with both MUS81 inhibitors in a dose-dependent manner”. 1530 nM corresponded to half-maximal inhibition in the assay with U2OS BIR-GFP cells (IC50).

For `Cc1cc(=O)[nH]c(-n2nc(-c3ccccc3)cc2NC(=O)c2cc(-c3ccccc3)on2)n1` [Compound 32, N-(1-(4-Methyl-6-oxo-1,6-dihydropyrimidin-2-yl)-3-phenyl-1H-pyrazol-5-yl)-5-phenylisoxazole-3-carboxamide], the “effect on NHEJ” value in the assay with EJ5-GFP cells is listed as “no negative effect”. Moreover, in the assay with U2OS, HEK293, and CAL51, the “enhancement of cisplatin-induced decrease of viability” value is reported as “further enhanced by cotreatment with both MUS81 inhibitors in a dose-dependent manner”. Also, the IC50 in the assay with U2OS BIR-GFP cells was 240 nM.
